Reference: PMC4949556, “Subtle Structural Differences Trigger Inhibitory Activity of Propafenone Analogues at the Two Polyspecific ABC Transporters: P‐Glycoprotein (P‐gp) and Breast Cancer Resistance Protein (BCRP)” (Chemmedchem, 2016)
“Also recorded” adds a separate entry of the source.

Tests used:
Format in all cases: cell-based
P-gp = molecular target: T1, P-gp (Homo sapiens, UniProt P08183); assay: P-gp inhibition: steady-state daunorubicin accumulation in P-gp-overexpressing CCRF VCR1000 cells (flow cytometry); conditions: for in vitro classification as P-gp inhibitor: IC50 below 10 μM considered active; for inhibition at 30 min, 100 µM: human, CCRF VCR1000 cells overexpressing P-gp, pH 7.4, probe daunorubicin (3 µM), 100µM compound, compared to positive control verapamil (100µM) set as 100%, mean of 3 independent experiments, read-out: In vitro activity (% inhibition), P-gp, Table S2; for Hill coefficient P-gp: Hill coefficient of IC50 measurement, mean ± SD of n experiments; for IC50: daunorubicin 3 μM, CCRF VCR1000 cells, mean±SD, at least n=3; for fold higher IC50 value for BCRP than for P-gp: ratio IC50 BCRP / IC50 P-gp
T1 construct: was obtained by stepwise selection of CCRF‐CEM in vincristine‐containing medium; endogenous in cells; host or cells: CCRF VCR1000 (vincristine-selected subline of CCRF-CEM human T-lymphoblasts; gift of V. Gekeler)
T1 sequence (P08183 whole entry): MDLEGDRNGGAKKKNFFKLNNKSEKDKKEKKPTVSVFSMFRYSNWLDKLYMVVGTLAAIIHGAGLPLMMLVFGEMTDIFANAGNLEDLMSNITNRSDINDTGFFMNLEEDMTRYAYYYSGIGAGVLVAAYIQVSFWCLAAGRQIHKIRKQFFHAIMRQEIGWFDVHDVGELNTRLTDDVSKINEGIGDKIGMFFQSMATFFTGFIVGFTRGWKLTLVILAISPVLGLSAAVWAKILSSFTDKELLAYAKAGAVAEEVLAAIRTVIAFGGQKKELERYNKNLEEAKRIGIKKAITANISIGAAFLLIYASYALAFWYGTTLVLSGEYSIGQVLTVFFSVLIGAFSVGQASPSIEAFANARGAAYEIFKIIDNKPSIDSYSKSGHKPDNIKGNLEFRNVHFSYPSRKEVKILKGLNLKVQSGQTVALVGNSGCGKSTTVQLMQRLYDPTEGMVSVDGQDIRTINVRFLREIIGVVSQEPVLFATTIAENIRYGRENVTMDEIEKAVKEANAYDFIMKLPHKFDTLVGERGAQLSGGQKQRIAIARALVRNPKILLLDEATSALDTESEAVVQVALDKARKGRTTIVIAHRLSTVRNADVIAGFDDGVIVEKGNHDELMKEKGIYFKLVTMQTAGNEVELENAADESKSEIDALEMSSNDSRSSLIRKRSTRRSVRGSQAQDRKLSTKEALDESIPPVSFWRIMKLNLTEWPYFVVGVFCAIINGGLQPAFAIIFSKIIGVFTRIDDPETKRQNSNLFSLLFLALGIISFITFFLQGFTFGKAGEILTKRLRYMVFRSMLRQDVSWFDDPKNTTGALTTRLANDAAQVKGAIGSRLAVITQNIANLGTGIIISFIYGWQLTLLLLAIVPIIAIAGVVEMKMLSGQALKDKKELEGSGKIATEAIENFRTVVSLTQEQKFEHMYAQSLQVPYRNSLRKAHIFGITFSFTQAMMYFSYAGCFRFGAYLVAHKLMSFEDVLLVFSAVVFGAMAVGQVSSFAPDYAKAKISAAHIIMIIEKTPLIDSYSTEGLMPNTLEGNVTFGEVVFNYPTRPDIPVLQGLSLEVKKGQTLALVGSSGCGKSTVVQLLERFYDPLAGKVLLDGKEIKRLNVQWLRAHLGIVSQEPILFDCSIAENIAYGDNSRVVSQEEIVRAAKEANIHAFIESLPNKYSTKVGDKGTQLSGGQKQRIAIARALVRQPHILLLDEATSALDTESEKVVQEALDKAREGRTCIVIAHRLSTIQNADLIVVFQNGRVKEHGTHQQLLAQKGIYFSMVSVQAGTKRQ
Protocol: (§1) P‐gp and BCRP inhibitory activity was assessed by implementing an intracellular accumulation assay of daunorubicin or mitoxantrone in cells overexpressing P‐gp or BCRP, respectively. In a first run, the effect of compounds 5, 6, 10, 11, and 16 (Figure 2) at 100 μM final concentration was tested (Figure 3). All compounds showing an inhibitory effect of more than 50 % compared with full inhibition by the known inhibitors of P‐gp (verapamil) and BCRP (Ko143) were further processed, and IC50 values were determined (IC50 curves and Hill coefficients are available in Figure S1 and Table S3 in the Supporting Information). […] For P‐gp, nine compounds were classified as inhibitors (5 a, 5 b, 6 a, 10 a, 10 b, 11 b, 16 a, 16 b, 16 c).
(§2) Cell culture: The human myeloid leukemia PLB985 parental and stably expressing BCRP cell lines31 were kindly provided by B. Sarkadi (Institute of Enzymology, Research Centre for Natural Sciences, Budapest, Hungary) and K. Nemet (Creative Cell Ltd., Budapest, Hungary). Both cell lines were cultured in RPMI 1640 supplemented with 10 % FBS and 100 IU mL^−1 of penicillin and streptomycin. The human T‐lymphoblast cell line CCRF VCR1000, overexpressing P‐gp, was obtained by stepwise selection of CCRF‐CEM in vincristine‐containing medium32 and was kindly provided by V. Gekeler (Altana‐Pharma formerly Byk‐Gulden, Konstanz, Germany). CCRF VCR1000 cells were cultured in RPMI 1640 medium containing 20 % FBS and were treated regularly with vincristine (1 μg mL^−1) for about 72 h, followed by centrifugation (300 g, 5 min, RT) and resuspension in normal culture medium. All cell lines were maintained at 37 °C in an atmosphere containing 5 % CO2 with 95 % relative humidity.
(§3) Steady‐state accumulation experiments: For BCRP and P‐gp inhibition studies, the steady‐state accumulation of mitoxantrone (7 μM) and daunorubicin (3 μM), respectively, was performed as previously described.33 Briefly, cells were harvested, pelleted (300 g, 5 min, 4 °C), diluted to a concentration of 12×10^6 cells mL^−1 in HPMI (10 mM Hepes, 120 mM NaCl, 5 mM KCl, 0.4 mM MgCl2, 0.04 mM CaCl2, 10 mM glucose, 10 mM NaHCO3, 5 mM Na2HPO4, pH 7.4 with NaOH) and kept on ice for further processing. For each data point, the cell suspension (25 μL) was preincubated for 5 min at 37 °C with 2 % DMSO (25 μL) in HPMI alone (DMSO control) or containing different concentrations of test compound solutions. Thereafter, cells were preloaded with daunorubicin (50 μL) or mitoxantrone (50 μL) for 30 or 20 min at 37 °C, respectively, to reach a final concentration of 3 or 7 μM, respectively. […] Preloading was stopped by chilling cells on ice for 5 min followed by the addition of 400 μL ice‐cold PBS. Cells were pelleted (300 g, 5 min, 4 °C), the supernatant was discarded, and the cell pellet was resuspended in ice‐cold PBS (150 μL). Until measurement, cells were kept on ice and in the dark. Immediately before cell fluorescence measurement by flow cytometry (BD Accuri C6 and BD FACSCalibur, Becton Dickinson, San Jose, CA, USA; MACSQuant, MiltenyiBiotec GmbH, BergischGladbach, Germany), 50 μL of 4′,6‐diamidin‐2‐phenylindole solution (DAPI, 4 μg mL^−1 in PBS) was added to gate out dead cells. 100 μM verapamil and 1 μM Ko143 were used as positive controls for P‐gp and BCRP inhibition, respectively. […]

BCRP = molecular target: T2, BCRP (Homo sapiens, UniProt Q9UNQ0); assay: BCRP inhibition: steady-state mitoxantrone accumulation in BCRP-expressing PLB985 cells (flow cytometry); conditions: for in vitro classification as BCRP inhibitor: IC50 below 10 μM considered active; for inhibition at 20 min, 100 µM: human, PLB985 cells stably expressing BCRP, pH 7.4, probe mitoxantrone (7 µM), 100µM compound, compared to positive control Ko143 (1µM) set as 100%, mean of 3 independent experiments, read-out: In vitro activity (% inhibition), BCRP, Table S1; for IC50: BCRP IC50, mitoxantrone 7 μM, PLB985 BCRP cells, mean±SD, at least n=3 (11 a n=2); for Hill coefficient BCRP: Hill coefficient of IC50 measurement, mean ± SD of n experiments; for fold lower IC50 value for BCRP than for P-gp: ratio IC50 P-gp / IC50 BCRP
T2 construct: expressed in transfected cells; host or cells: PLB985 human myeloid leukemia cells stably expressing BCRP (gift of B. Sarkadi and K. Nemet, Budapest)
T2 sequence (Q9UNQ0 whole entry): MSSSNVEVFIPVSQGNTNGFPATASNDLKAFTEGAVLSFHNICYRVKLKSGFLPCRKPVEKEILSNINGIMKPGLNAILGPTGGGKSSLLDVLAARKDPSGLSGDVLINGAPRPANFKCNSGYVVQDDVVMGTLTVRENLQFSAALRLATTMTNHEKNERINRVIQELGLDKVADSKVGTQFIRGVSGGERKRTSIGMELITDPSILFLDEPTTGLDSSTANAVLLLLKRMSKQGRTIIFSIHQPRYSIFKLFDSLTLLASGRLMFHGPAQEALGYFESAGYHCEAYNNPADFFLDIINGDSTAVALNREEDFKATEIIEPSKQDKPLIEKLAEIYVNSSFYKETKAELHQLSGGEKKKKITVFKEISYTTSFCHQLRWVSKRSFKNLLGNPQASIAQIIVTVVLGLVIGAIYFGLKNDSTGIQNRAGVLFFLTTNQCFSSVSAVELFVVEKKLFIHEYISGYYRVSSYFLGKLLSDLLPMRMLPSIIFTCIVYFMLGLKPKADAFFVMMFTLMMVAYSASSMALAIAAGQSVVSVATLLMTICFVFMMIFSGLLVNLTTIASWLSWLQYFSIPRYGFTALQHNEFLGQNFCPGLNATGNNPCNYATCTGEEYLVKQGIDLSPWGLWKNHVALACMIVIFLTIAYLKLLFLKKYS
Protocol: as §1, §2, §3

P-gp / BCRP = molecular target: T3, P-gp / BCRP (Homo sapiens, UniProt Q9UNQ0); assay: as above; conditions: human, pH 7.4, probe daunorubicin (3 µM) for P-gp; mitoxantrone (7 µM) for BCRP; IC50 P-gp / IC50 BCRP; read-out: selectivity index (SI) P-gp/BCRP
T3 construct: expressed in transfected cells; host or cells: PLB985 human myeloid leukemia cells stably expressing BCRP (gift of B. Sarkadi and K. Nemet, Budapest)
T3 sequence (Q9UNQ0 whole entry): as above
Protocol: as §1, §2, §3

CC(=O)c1ccccc1OCCN1CC(=O)N2CCCC2C1=O (centres unmarked) [Compound 11 c, 2‐(2‐(2‐Acetylphenoxy)ethyl)hexahydropyrrolo[1,2‐a]pyrazine‐1,4‐dione]
in vitro classification as P-gp inhibitor (P-gp): noninhibitors
inhibition at 30 min, 100 µM (P-gp): 8%
in vitro classification as BCRP inhibitor (BCRP): noninhibitors
inhibition at 20 min, 100 µM (BCRP): 37%

COc1ccc(C(=O)CCc2ccccc2)c(OCCNC(=O)C2CCCN2)c1 (centres unmarked) [Compound 10 b]
Hill coefficient P-gp (P-gp): 1.1±0.1
in vitro classification as P-gp inhibitor (P-gp): inhibitors
IC50 (P-gp): 1 ± 0.2 µM
fold higher IC50 value for BCRP than for P-gp (P-gp): more than 2.6 fold
IC50 (BCRP): 2.9 ± 0.5 µM
Hill coefficient BCRP (BCRP): 1.0±0.1
in vitro classification as BCRP inhibitor (BCRP): inhibitors

O=C(CCc1ccccc1)c1ccccc1OCC(O)CNC(=O)C1CCCN1 (centres unmarked) [Compound 5 a, N ‐(2‐hydroxy‐3‐(2‐(3‐phenylpropanoyl)phenoxy)propyl)pyrrolidine‐2‐carboxamide]
Hill coefficient P-gp (P-gp): 1.3±0.2
in vitro classification as P-gp inhibitor (P-gp): inhibitors
IC50 (P-gp): 2.1 ± 0.4 µM
fold higher IC50 value for BCRP than for P-gp (P-gp): more than fivefold
IC50 (BCRP): 16.1 µM
Hill coefficient BCRP (BCRP): 1.4±0.3
in vitro classification as BCRP inhibitor (BCRP): borderline activity
selectivity ratio (P-gp / BCRP): 0.13

CC(=O)c1ccccc1OCC(O)CN1CC(=O)N2CCCC2C1=O (centres unmarked) [Compound 6 c, 2‐(3‐(2‐Acetylphenoxy)‐2‐hydroxypropyl)hexahydropyrrolo[1,2‐a]‐pyrazine‐1,4‐dione]
in vitro classification as P-gp inhibitor (P-gp): noninhibitors
inhibition at 30 min, 100 µM (P-gp): 4%
in vitro classification as BCRP inhibitor (BCRP): noninhibitors
inhibition at 20 min, 100 µM (BCRP): 33%

COc1ccc(C(=O)CCc2ccccc2)c(OCC(O)CN2CC(=O)N3CCCC3C2=O)c1 (centres unmarked) [Compound 6 b, 2‐(2‐Hydroxy‐3‐(5‐methoxy‐2‐(3‐phenylpropanoyl)phenoxy)propyl)‐hexahydropyrrolo[1,2‐a]pyrazine‐1,4‐dione]
Hill coefficient P-gp (P-gp): 1.5±0.2
in vitro classification as P-gp inhibitor (P-gp): borderline inhibitory activity
IC50 (P-gp): 11 ± 1 µM
IC50 (BCRP): 3.8 ± 0.6 µM
Hill coefficient BCRP (BCRP): 1.1±0.2
in vitro classification as BCRP inhibitor (BCRP): inhibitors
fold lower IC50 value for BCRP than for P-gp (BCRP): 2.9 fold
selectivity ratio (P-gp / BCRP): 2.82

CC(NCC(O)COc1ccccc1C(=O)CCc1ccccc1)C(F)F (centres unmarked) [Compound 16 c, 1‐(2‐(3‐((1,1‐Difluoropropan‐2‐yl)amino)‐2‐hydroxypropoxy)phenyl)‐3‐phenylpropan‐1‐one]
Hill coefficient P-gp (P-gp): 1.5±0.1
in vitro classification as P-gp inhibitor (P-gp): inhibitors
IC50 (P-gp): 0.9 ± 0.2 µM
fold higher IC50 value for BCRP than for P-gp (P-gp): more than fivefold
IC50 (BCRP): 4.9 ± 1.1 µM
Hill coefficient BCRP (BCRP): 1.0±0.2
in vitro classification as BCRP inhibitor (BCRP): inhibitors

COc1ccc(C(=O)CCc2ccccc2)c(OCC(O)CNC(=O)C2CCCN2)c1 (centres unmarked) [Compound 5 b, N‐(2‐hydroxy‐3‐(5‐methoxy‐2‐(3‐phenylpropanoyl)phenoxy)propyl)‐pyrrolidine‐2‐carboxamide]
Hill coefficient P-gp (P-gp): 1.3±0.2
in vitro classification as P-gp inhibitor (P-gp): inhibitors
IC50 (P-gp): 2.2 ± 0.6 µM
fold higher IC50 value for BCRP than for P-gp (P-gp): 1.4 fold
IC50 (BCRP): 3.1 ± 0.5 µM
Hill coefficient BCRP (BCRP): 1.4±0.1
in vitro classification as BCRP inhibitor (BCRP): inhibitors

O=C(CCc1ccccc1)c1ccccc1OCCN1CC(=O)N2CCCC2C1=O (centres unmarked) [Compound 11 a, 2‐(2‐(2‐(3‐Phenylpropanoyl)phenoxy)ethyl)hexahydropyrrolo[1,2‐a]‐pyrazine‐1,4‐dione]
Hill coefficient P-gp (P-gp): 1.8±0.4
in vitro classification as P-gp inhibitor (P-gp): borderline inhibitory activity; also recorded: borderline inhibitor
IC50 (P-gp): 13.9 ± 1.5 µM
fold higher IC50 value for BCRP than for P-gp (P-gp): 1.5 fold
IC50 (BCRP): 21.5 ± 2.9 µM
Hill coefficient BCRP (BCRP): 1.0±0.0
in vitro classification as BCRP inhibitor (BCRP): weak inhibitor

CC(C)NCC(O)COc1ccccc1C(=O)CCc1ccccc1 (centres unmarked) [Compound 16 a, 1‐(2‐(2‐Hydroxy‐3‐(isopropylamino)propoxy)phenyl)‐3‐phenyl‐propan‐1‐one]
Hill coefficient P-gp (P-gp): 0.9±0.1
in vitro classification as P-gp inhibitor (P-gp): inhibitors
IC50 (P-gp): 0.3 µM
fold higher IC50 value for BCRP than for P-gp (P-gp): more than fivefold
inhibition at 20 min, 100 µM (BCRP): 53%

COc1ccc(C(=O)CCc2ccccc2)c(OCCN2CC(=O)N3CCCC3C2=O)c1 (centres unmarked) [Compound 11 b, 2‐(2‐(5‐Methoxy‐2‐(3‐phenylpropanoyl)phenoxy)ethyl)‐hexahydropyrrolo[1,2‐a]pyrazine‐1,4‐dione]
Hill coefficient P-gp (P-gp): 1.5±0.1
in vitro classification as P-gp inhibitor (P-gp): inhibitors
IC50 (P-gp): 6.2 ± 0.4 µM
IC50 (BCRP): 2.3 µM
Hill coefficient BCRP (BCRP): 1.1±0.2
in vitro classification as BCRP inhibitor (BCRP): inhibitors
fold lower IC50 value for BCRP than for P-gp (BCRP): 2.7 fold
selectivity ratio (P-gp / BCRP): 2.7

CC(=O)c1ccccc1OCCNC(=O)C1CCCN1 (centres unmarked) [Compound 10 c, N ‐(2‐(2‐acetylphenoxy)ethyl)pyrrolidine‐2‐carboxamide]
Hill coefficient P-gp (P-gp): 2.2±0.4
in vitro classification as P-gp inhibitor (P-gp): noninhibitors
IC50 (P-gp): 34.8 ± 1.8 µM
in vitro classification as BCRP inhibitor (BCRP): noninhibitors
inhibition at 20 min, 100 µM (BCRP): 24%

O=C(CCc1ccccc1)c1ccccc1OCCNC(=O)C1CCCN1 (centres unmarked) [Compound 10 a, N ‐(2‐(2‐(3‐phenylpropanoyl)phenoxy)ethyl)pyrrolidine‐2‐carboxamide]
Hill coefficient P-gp (P-gp): 1.6±0.2
in vitro classification as P-gp inhibitor (P-gp): inhibitors
IC50 (P-gp): 1.3 ± 0.1 µM
fold higher IC50 value for BCRP than for P-gp (P-gp): more than 2.6 fold
IC50 (BCRP): 3.3 ± 0.6 µM
Hill coefficient BCRP (BCRP): 1.3±0.2
in vitro classification as BCRP inhibitor (BCRP): inhibitors

CC(CF)NCC(O)COc1ccccc1C(=O)CCc1ccccc1 (centres unmarked) [Compound 16 b, 1‐(2‐(3‐((1‐Fluoropropan‐2‐yl)amino)‐2‐hydroxypropoxy)phenyl)‐3‐phenylpropan‐1‐one]
Hill coefficient P-gp (P-gp): 1.3±0.2
in vitro classification as P-gp inhibitor (P-gp): inhibitors
IC50 (P-gp): 0.5 ± 0.1 µM
fold higher IC50 value for BCRP than for P-gp (P-gp): more than fivefold
IC50 (BCRP): 5.5 ± 0.9 µM
Hill coefficient BCRP (BCRP): 1.6±0.2
in vitro classification as BCRP inhibitor (BCRP): inhibitors

CC(=O)c1ccccc1OCC(O)CNC(=O)C1CCCN1 (centres unmarked) [Compound 5 c, N ‐(3‐(2‐acetylphenoxy)‐2‐hydroxypropyl)pyrrolidine‐2‐carboxamide]
Hill coefficient P-gp (P-gp): 1.9±0.2
in vitro classification as P-gp inhibitor (P-gp): noninhibitors
IC50 (P-gp): 58.7 ± 9.2 µM
in vitro classification as BCRP inhibitor (BCRP): noninhibitors
inhibition at 20 min, 100 µM (BCRP): 20%
